Measurements taken from patent US20040038950A1, “Pharmaceutical composition for treating IL-1 related diseases or disorders” (priority 2002, published 2004).

Legend:
[1] = test system: TIMP-1; assay: Western blot of TIMP-1 in chondrocyte lysates; format: cell-based, human; conditions: 0, 10 or 100 μ DHEA, three days
Procedure: Chondrocytes were isolated from the knee joint of patient undergoing a knee replacement due to osteoarthritis. Cartilage was digested with 0.2% protease Type XIV (Sigma) for 1 hour, followed by 3-hour incubation with 0.2% collagenase Type IA (Sigma) at 37° C. Following the incubation, the undigested cartilage fragments were removed using a 70 μm Nylon sieve. Chondrocytes were washed with DPBS and maintained in monolayer culture for 7 days in Dulbecco's modified Eagle's medium (DMEM; Life Technologies Inc.) which contained 10% fetal bovine serum (FBS; Life Technologies), 100 units/ml penicillin-streptomycin (Life Technologies) and 25 μg/ml L-ascorbic acid (Sigma). All experiments were performed with primary or first passage cells. The preparation of chondrocytes in alginate beads was carried out with 4×10^6 cells per 1 ml of alginate. Alginate cultures were maintained for 7 days at 37° C., 5% CO2 and 95% humidity and incubated with various concentrations of DHEA (0, 10, 50 or 100 μM) for a varing period of time. DHEA was purchased from Sigma and used after dissolving either in ethanol or dimethyl sulfoxide (DMSO). […]
To investigate the effect of DHEA on the protein concentration, Western blot analysis was performed. […] Protein concentration of the supernatant was determined by Bio-Rad protein assay (Bio-Rad, USA) using bovine serum albumin (BSA) as a standard. […]

[2] = test system: (IL-1β)-induced MMP-1 mRNA; assay: (IL-1β)-induced MMP-1 mRNA expression in chondrocytes, RT-PCR; format: cell-based, human; conditions: 72 hr
Procedure: (§1) Sixteen hours prior to a treatment, the complete culture medium was replaced with a serum-free medium. Chondrocyte alginate bead cultures were then treated with IL-1β ([…], (Calbiochem) and DHEA (0, 10, 50 or 100 μM) for 3 days.
(§2) Total RNA from chondrocytes was extracted using RNeasy Mini Kit (QIAGEN). Reverse transcription from 1 μg of total RNA was conducted using First Strand cDNA Synthesis Kit (MBI Fermentas) according to manufacturer's recommendation with random hexamers. The resulting cDNA was then amplified by polymerase chain reaction using AccuPower PCR Premix (Bioneer, Korea) in a final volume of 20 μl using three thermocycler temperatures (30 sec at […], 30 sec at 60° C., and 30 sec at […]). All reactions were determined to be in the linear range of amplification with the cycle number ranging from 14 to 30. The PCR products were analyzed by separation on a 2% agarose gel followed by ethidium bromide staining. Following electrophoresis, photographs were taken and analyzed using a densitometric program (TINA; Raytest Isotopenmeβgerate, Germany). Integrated density values for the genes in question were then normalized to the glyceraldehyde-3-phosphate dehydrogenase (GAPDH) values for a semiquantitative assessment. After normalizing with respect to GAPDH, percentage increase or decrease was determined. Each experiment was repeated at least three times. […]

[3] = test system: TIMP-1 mRNA; assay: RT-PCR of TIMP-1 mRNA in chondrocytes; format: cell-based, human
Procedure: (§3) Chondrocytes were isolated from the knee joint of patient undergoing a knee replacement due to osteoarthritis. Cartilage was digested with 0.2% protease Type XIV (Sigma) for 1 hour, followed by 3-hour incubation with 0.2% collagenase Type IA (Sigma) at 37° C. Following the incubation, the undigested cartilage fragments were removed using a 70 μm Nylon sieve. Chondrocytes were washed with DPBS and maintained in monolayer culture for 7 days in Dulbecco's modified Eagle's medium (DMEM; Life Technologies Inc.) which contained 10% fetal bovine serum (FBS; Life Technologies), 100 units/ml penicillin-streptomycin (Life Technologies) and 25 μg/ml L-ascorbic acid (Sigma). All experiments were performed with primary or first passage cells. The preparation of chondrocytes in alginate beads was carried out with 4×10^6 cells per 1 ml of alginate. Alginate cultures were maintained for 7 days at 37° C., 5% CO2 and 95% humidity and incubated with various concentrations of DHEA (0, 10, 50 or 100 μM) for a varing period of time. DHEA was purchased from Sigma and used after dissolving either in ethanol or dimethyl sulfoxide (DMSO). After a desired incubation period, cells were harvested by solubilizing the alginate beads in citrate buffer (55 mM sodium citrate, 0.15 M NaCl, pH 7.0) for 10 min at 37° C. and by centrifugation (300 g, 5 min).
as §2

[4] = test system: (IL-1β)-induced IL-6 gene expression; assay: (IL-1β)-induced IL-6 gene expression in chondrocytes; format: cell-based, human; conditions: 10, 50, 100 μM with IL-1β, 72 hr
Procedure: as §1, §2

[5] = test system: MMP-3 expression; assay: Osteoarthritic rabbit model (ACLT), intraarticular injection, RT-PCR of MMP-3; format: in vivo; conditions: rabbit ACLT knee, intraarticular once a week for 5 weeks
Procedure: Mature New Zealand White rabbits underwent bilateral anterior cruciate ligament transection (ACLT). ACLT was performed using a medial arthrotomy method. Postoperatively the animals were permitted cage (60 cm×60 cm×40 cm) activity without immobilization. The right knees received via intraartiticular injection DHEA, DHEA-pyruvate or DHEA+HA, 4 weeks after ACLT and once a week for 5 weeks. The left knees received 0.3 ml of intraarticular injection with control solution (carrier solution). After 9 weeks from ACLT, the animas were sacrificed.
Synovium (entire tissue) around the infrapatellar fat pads and cartilage tissue from the femoral condyle and the tibial plateau were harvested. The subsequent experimental procedure was the same as described in Test Example IV.

[6] = test system: type II collagen mRNA; assay: RT-PCR of type II collagen mRNA in chondrocytes; format: cell-based, human; conditions: for type II collagen gene up-regulation, enhancement: 72 hours
Procedure: as §3
(§4) Total RNA from chondrocytes was extracted using RNeasy Mini Kit (QIAGEN). Reverse transcription from 1 μg of total RNA was conducted using First Strand cDNA Synthesis Kit (MBI Fermentas) according to manufacturer's recommendation with random hexamers. […] All reactions were determined to be in the linear range of amplification with the cycle number ranging from 14 to 30. The PCR products were analyzed by separation on a 2% agarose gel followed by ethidium bromide staining. Following electrophoresis, photographs were taken and analyzed using a densitometric program (TINA; Raytest Isotopenmeβgerate, Germany). […] After normalizing with respect to GAPDH, percentage increase or decrease was determined. […]

[7] = test system: type I collagen mRNA; assay: RT-PCR of type I collagen mRNA in chondrocytes; format: cell-based, human; conditions: 100 μM
Procedure: as §3, §4

[8] = test system: (IL-1β)-induced iNOS mRNA; assay: (IL-1β)-induced iNOS gene expression in chondrocytes; format: cell-based, human; conditions: 10, 50, 100 μM with IL-1β, 72 hr
Procedure: as §1, §2

[9] = test system: (IL-1β)-induced MMP-3 mRNA; assay: (IL-1β)-induced MMP-3 mRNA expression in chondrocytes, RT-PCR; format: cell-based, human; conditions: 100 μM DHEA with IL-1β, 72 hr
Procedure: as §1, §2

Structure (SMILES): C[C@]12CC[C@H](O)CC1=CC[C@@H]1[C@@H]2CC[C@]2(C)C(=O)CC[C@@H]12 [DHEA, dehyroepiandrosterone]
- translational level of mature TIMP-1 (Western blot) [1]: increased with increasing concentration of DHEA
- (IL-1β)-induced up-regulation of MMP-1 mRNA, inhibition ([2]; 10 μM DHEA with IL-1β): 74%
- (IL-1β)-induced up-regulation of MMP-1 mRNA, inhibition ([2]; 50 μM DHEA with IL-1β): 53%
- TIMP-1 mRNA expression, maximum rate of enhancement ([3]; 50 μM, 72 hours): 120%
- TIMP-1 mRNA expression, up-regulation ([3]; 100 μM, after 72 hr): 129%
- TIMP-1 mRNA expression ([3]; 100 μM, up to 48 hr): unaffected
- TIMP-1 mRNA enhancement effect ([3]; DHEA concentration above 100 μM): diminished
- (IL-1β)-induced IL-6 gene expression [4]: no significantly change
- expression of MMP-3 [5]: did not change
- type II collagen gene up-regulation, enhancement ([6]; 50 μM): 132%
- type II collagen gene up-regulation, enhancement ([6]; 100 μM): 146%
- Emax at 100 µM ([6]; Homo sapiens, Chondrocyte, 100 μM, after 48 hr, read-out: type II collagen mRNA level, maximal stimulation): 276%
- type I collagen mRNA, maximal inhibition ([7]; 72 hours): 28%
- type I collagen production, reduced by ([7]; after 24-72 hr of culture): less than 50%
- type I collagen mRNA expression ([7]; after 72 hr): markly inhibited
- (IL-1β)-induced up-regulation of iNOS mRNA [8]: suppressed
- (IL-1β)-induced expression of MMP-3 mRNA, inhibition [9]: 73%
